From ChEMBL document CHEMBL5338718, “Design and exploration of gut-restricted bifunctional molecule with TGR5 agonistic and DPP4 inhibitory effects for treating ulcerative colitis” (Eur J Med Chem, 2022)
Calls of active or inactive are those of the source. The rule behind the calls is not given here.

Experiments:
[1] = biological target: T1, G-protein coupled bile acid receptor 1 (Homo sapiens, UniProt Q8TDU6); test: Agonist activity at human TGR5 expressed in human HEK293 cells co-expressing CRE-driven luciferase reporter gene assessed as luciferase activity incubated for 5.5 hrs by Steady-Glo based luciferase assay; type: functional, cell-based
T1 sequence (Q8TDU6 whole entry): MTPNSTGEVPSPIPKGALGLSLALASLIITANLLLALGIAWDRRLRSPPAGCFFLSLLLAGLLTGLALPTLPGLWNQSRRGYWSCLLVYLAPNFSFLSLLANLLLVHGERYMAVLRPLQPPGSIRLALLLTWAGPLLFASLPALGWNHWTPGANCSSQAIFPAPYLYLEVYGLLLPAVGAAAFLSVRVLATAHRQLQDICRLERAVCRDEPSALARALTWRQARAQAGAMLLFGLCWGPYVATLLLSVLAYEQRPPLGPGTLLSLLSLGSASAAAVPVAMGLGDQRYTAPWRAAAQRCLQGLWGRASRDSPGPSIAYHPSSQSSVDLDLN

[2] = biological target: T2, G-protein coupled bile acid receptor 1 (Mus musculus, UniProt Q80SS6); test: Agonist activity at mouse TGR5 expressed in human HEK293 cells co-expressing CRE-driven luciferase reporter gene assessed as luciferase activity incubated for 5.5 hrs by Steady-Glo based luciferase assay; type: functional, cell-based
T2 sequence (Q80SS6 whole entry): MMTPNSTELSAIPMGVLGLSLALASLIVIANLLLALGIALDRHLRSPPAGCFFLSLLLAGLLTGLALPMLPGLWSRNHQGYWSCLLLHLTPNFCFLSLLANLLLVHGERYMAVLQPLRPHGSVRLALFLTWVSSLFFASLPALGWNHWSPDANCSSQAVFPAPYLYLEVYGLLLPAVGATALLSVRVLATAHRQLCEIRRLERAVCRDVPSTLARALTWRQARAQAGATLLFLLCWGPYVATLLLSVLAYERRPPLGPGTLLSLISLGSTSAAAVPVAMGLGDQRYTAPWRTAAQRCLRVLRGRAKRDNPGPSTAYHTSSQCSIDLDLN

[3] = biological target: Dipeptidyl peptidase 4 (Mus musculus, UniProt P28843); test: Inhibition of mouse serum DPP4 assessed as cleavage of substrate by measuring AMC release using Gly-Pro-AMC as substrate by fluorescence based microplate reader assay; type: cell-free
[4] = Water solubility at pH 6.8; type: physicochemical
[5] = system: Mus musculus; test: In vivo inhibition of DDP4 in ICR mouse assessed as decrease in enzyme activity in serum at 200 mg/kg,po and measured at 2 hrs using Gly-Pro-AMC as substrate by fluorescence based microplate reader assay; type: functional, organism-based
[6] = system: Mus musculus; test: In vivo inhibition of DDP4 in ICR mouse assessed as decrease in enzyme activity in serum at 200 mg/kg,po and measured at 4 hrs using Gly-Pro-AMC as substrate by fluorescence based microplate reader assay; type: functional, organism-based
[7] = system: Mus musculus; test: In vivo inhibition of DDP4 in ICR mouse assessed as decrease in enzyme activity in serum at 200 mg/kg,po and measured after 8 hrs using Gly-Pro-AMC as substrate by fluorescence based microplate reader assay; type: functional, organism-based
[8] = system: Mus musculus; test: In vivo inhibition of DDP4 in ICR mouse assessed as decrease in enzyme activity in ileum at 200 mg/kg,po and measured after 8 hrs using Gly-Pro-AMC as substrate by fluorescence based microplate reader assay; type: functional, organism-based
[9] = system: Mus musculus; test: In vivo inhibition of DDP4 in ICR mouse assessed as decrease in enzyme activity in ileum at 30 mg/kg,po and measured after 8 hrs using Gly-Pro-AMC as substrate by fluorescence based microplate reader assay; type: functional, organism-based
[10] = system: Mus musculus; test: Induction of gut restriction in overnight fasted ICR mouse assessed as effect on gallbladder-filling by measuring gallbladder volume at 50 mg/kg, po and measured after 4 hrs by Vernier caliper analysis; type: functional, organism-based
[11] = system: Mus musculus; test: Induction of gut restriction in overnight fasted ICR mouse assessed as effect on gallbladder-filling by measuring bile weight at 50 mg/kg, po and measured after 4 hrs by Vernier caliper analysis; type: functional, organism-based

Chain of Dipeptidyl peptidase 4 (P28843 whole entry): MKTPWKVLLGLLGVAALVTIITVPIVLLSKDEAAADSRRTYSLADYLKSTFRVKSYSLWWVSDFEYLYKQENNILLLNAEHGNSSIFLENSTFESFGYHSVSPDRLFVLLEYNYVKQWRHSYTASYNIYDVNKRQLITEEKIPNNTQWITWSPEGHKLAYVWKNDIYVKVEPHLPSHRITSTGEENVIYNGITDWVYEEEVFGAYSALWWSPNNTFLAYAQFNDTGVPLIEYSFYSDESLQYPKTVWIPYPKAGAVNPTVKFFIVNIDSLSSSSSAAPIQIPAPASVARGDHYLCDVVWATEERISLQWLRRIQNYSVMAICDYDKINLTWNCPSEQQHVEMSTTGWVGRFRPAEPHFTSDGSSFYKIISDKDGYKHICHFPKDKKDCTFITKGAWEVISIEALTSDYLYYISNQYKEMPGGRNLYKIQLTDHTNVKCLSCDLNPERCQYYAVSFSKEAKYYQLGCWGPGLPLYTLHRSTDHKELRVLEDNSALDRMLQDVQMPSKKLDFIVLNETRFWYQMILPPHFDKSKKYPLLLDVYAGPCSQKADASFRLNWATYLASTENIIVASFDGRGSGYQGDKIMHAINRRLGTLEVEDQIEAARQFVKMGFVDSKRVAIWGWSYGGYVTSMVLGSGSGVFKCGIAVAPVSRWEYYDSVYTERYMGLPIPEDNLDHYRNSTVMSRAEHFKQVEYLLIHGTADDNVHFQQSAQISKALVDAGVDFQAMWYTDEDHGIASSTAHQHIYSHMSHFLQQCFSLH

Structure (SMILES)	EC50 [1] [nM]	EC50 [2] [nM]	IC50 [3] [nM]	solubility [4] [µM]	also measured
CC1C(=O)NCCCN1C(=O)C[C@H](N)Cc1cc(F)c(F)cc1F (mixture of isomers)	> 1000	> 1000	10.4		
N[C@@H](CC(=O)N1CCCN(CC(=O)NCCOCCOCCOCCOCCOCCNC(=O)CCc2cc(Cl)c(Oc3ccsc3C(=O)N3CCN(C4CC4)c4ccccc43)cc2Cl)C(=O)C1Cc1ccccc1)Cc1cc(F)c(F)cc1F (mixture of isomers)	4.9	2.7	124	10	
CC1C(=O)N(CC(=O)NCCOCCOCCOCCOCCOCCOCCNC(=O)CCc2cc(Cl)c(Oc3ccsc3C(=O)N3CCN(C4CC4)c4ccccc43)cc2Cl)CCCN1C(=O)C[C@H](N)Cc1cc(F)c(F)cc1F.F (mixture of isomers)	2.8	2.3	60.1	50	
N[C@@H](CC(=O)N1CCn2c(nnc2C(F)(F)F)C1)Cc1cc(F)c(F)cc1F					inhibition [5]: Active; inhibition [6]: Active; inhibition [7]: Active; inhibition [8]: Active; inhibition [9]: Active
N[C@@H](CC(=O)N1CCCN(CC(=O)NCCOCCOCCOCCOCCOCCOCCOCCNC(=O)CCc2cc(Cl)c(Oc3ccsc3C(=O)N3CCN(C4CC4)c4ccccc43)cc2Cl)C(=O)C1Cc1ccccc1)Cc1cc(F)c(F)cc1F (mixture of isomers)	3.6	2.1	103	20	
O=C(O)CCc1cc(Cl)c(Oc2ccsc2C(=O)N2CCN(C3CC3)c3ccccc32)cc1Cl	11.2	10.5	> 10000		
O=C(c1cnccc1Oc1cc(Cl)ccc1Cl)N1CCN(C2CC2)c2ccccc21					Activity [10]: inactive; Activity [11]: inactive
N[C@@H](CC(=O)N1CCCN(CC(=O)NCCOCCOCCOCCOCCOCCOCCNC(=O)CCc2cc(Cl)c(Oc3ccsc3C(=O)N3CCN(C4CC4)c4ccccc43)cc2Cl)C(=O)C1Cc1ccccc1)Cc1cc(F)c(F)cc1F (mixture of isomers)	3.7	2.3	112	20	

More lines, main results first:

EC50 [1] [nM]	EC50 [2] [nM]	IC50 [3] [nM]	solubility [4] [µM]	Structure (SMILES)	also measured
2.8	2.1	54.8	50	CC1C(=O)N(CC(=O)NCCOCCOCCOCCOCCOCCOCCOCCNC(=O)CCc2cc(Cl)c(Oc3ccsc3C(=O)N3CCN(C4CC4)c4ccccc43)cc2Cl)CCCN1C(=O)C[C@H](N)Cc1cc(F)c(F)cc1F (mixture of isomers)	
2.5	2.3	57.5	50	CC1C(=O)N(CC(=O)NCCOCCOCCOCCOCCOCCNC(=O)CCc2cc(Cl)c(Oc3ccsc3C(=O)N3CCN(C4CC4)c4ccccc43)cc2Cl)CCCN1C(=O)C[C@H](N)Cc1cc(F)c(F)cc1F (mixture of isomers)	
6.1	3.7	113	10	N[C@@H](CC(=O)N1CCCN(CC(=O)NCCOCCOCCOCCNC(=O)CCc2cc(Cl)c(Oc3ccsc3C(=O)N3CCN(C4CC4)c4ccccc43)cc2Cl)C(=O)C1Cc1ccccc1)Cc1cc(F)c(F)cc1F (mixture of isomers)	
3.8	2.3	104		C.N[C@@H](CC(=O)N1CCCN(CC(=O)NCCOCCOCCOCCOCCOCCOCCOCCOCCNC(=O)CCc2cc(Cl)c(Oc3ccsc3C(=O)N3CCN(C4CC4)c4ccccc43)cc2Cl)C(=O)C1Cc1ccccc1)Cc1cc(F)c(F)cc1F (mixture of isomers)	
14.9	6	224		CC1C(=O)N(CC(=O)NCCN(C)C(=O)CCc2cc(Cl)c(Oc3ccsc3C(=O)N3CCN(C4CC4)c4ccccc43)cc2Cl)CCCN1C(=O)C[C@H](N)Cc1cc(F)c(F)cc1F (mixture of isomers)	
		0.8		N[C@@H](CC(=O)N1CCCNC(=O)C1Cc1ccccc1)Cc1cc(F)c(F)cc1F (mixture of isomers)	
3.2	2.4	64.8	50	CC1C(=O)N(CC(=O)NCCOCCOCCOCCOCCOCCOCCOCCOCCNC(=O)CCc2cc(Cl)c(Oc3ccsc3C(=O)N3CCN(C4CC4)c4ccccc43)cc2Cl)CCCN1C(=O)C[C@H](N)Cc1cc(F)c(F)cc1F (mixture of isomers)	
4.5	4.3	119		CC1C(=O)N(CC(=O)NCCOCCOCCOCCNC(=O)CCc2cc(Cl)c(Oc3ccsc3C(=O)N3CCN(C4CC4)c4ccccc43)cc2Cl)CCCN1C(=O)C[C@H](N)Cc1cc(F)c(F)cc1F (mixture of isomers)	
